This is an account of results in patent US20040126338A1, “Process of converting trans-lutein into cis-lutein and the uses thereof” (priority 2002, published 2004).

For data set [1] the following is noted: cited from earlier work.
The conditions of data set [2]: among carotenoids; cited from earlier work.
Another data set relates to prostate cancer. The settings on record: in vivo; cited from earlier work.
Data set [3] can be described thus: Carotenoid content of lutein heated in oils at 72° C., UV-Vis absorbance at 446 nm. It is filed as physicochemical. Here is the method:
(§1) The solvent solutions are refluxed in the following examples by placing the glass flask on a heating unit. A reflux column, which is cooled by non-recirculating cold water, is attached to the flask. The solution is then heated to the boiling point of the given liquid, except for propylene glycol, which boils at 187° C. The refluxing time varies slightly between solution samples. The refluxing times for each example are stated for each below. Samples are taken periodically to test the concentration of the cis-isomers, these are referred to as collected samples. Similarly, the oil solutions were heated in the following examples by placing the glass flask into a heated oil bath filled with mineral oil, which was stirred constantly, at 72° C.
In this preparation a solution was made using 2 g of lutein dry cake and 20 ml of oil. The solution was heated in an oil bath. […] As before, samples were analyzed qualitatively using normal phase HPLC and spectophotometer. However, quantitative analysis was also performed, by taking 1 ml of the HEAT (hexane, ethanol, acetone and toluene) solution previously prepared, diluting it to 25 ml in ethanol, and determining the absorbance on an UV-Vis absorption spectrophotometer. This type of analysis is often useful for quantitative measurements. All of the thyme oil samples required a 1:20 dilution of the ethanol solution before reading on the UV-Vis.

Data set [4] can be described thus: Observed solubility of lutein dry cake in oils. It is filed as physicochemical. The protocol:
Using an analytical balance, the preparation of solution for the following examples for cis-isomerization includes placing weighed dry cake lutein into a flask and adding one of the above liquids to the flask to form the solution. The solution is first hand swirled and its solubility is observed. Following a baseline sample, which is taken at the 0 hour mark, the prepared lutein solution is placed on a heat source and refluxed for a period of time ranging between 0-120 hours.
The purpose of this preparation is to analyze the effect of heat on a solution of lutein in the above stated oils and determine whether isomerization from trans-lutein to various cis-isomers occurs, and the concentration of each isomer that is formed. The oils used in this example were corn oil, which was used as a control, corn mint oil, spearmint oil, peppermint oil, tea tree oil, and bay oil. […] The solutions were made by adding 20 ml of oil to the weighed lutein. The sample heated in an oil bath. A baseline 2 ml sample was taken and additional 2 ml samples taken at 1, 4, 8, 24, and 48 hours.
In this preparation a solution was made using 2 g of lutein dry cake and 20 ml of oil. The solution was heated in an oil bath. Samples (2 ml) were taken at 0, 1, 4, 6.5, 24, and 48 hours. As before, samples were analyzed qualitatively using normal phase HPLC and spectophotometer. However, quantitative analysis was also performed, by taking 1 ml of the HEAT (hexane, ethanol, acetone and toluene) solution previously prepared, diluting it to 25 ml in ethanol, and determining the absorbance on an UV-Vis absorption spectrophotometer. This type of analysis is often useful for quantitative measurements. All of the thyme oil samples required a 1:20 dilution of the ethanol solution before reading on the UV-Vis.
Samples containing 25% solutions were prepared using 2.5 g dry cake lutein and 10 ml of liquid. The liquid used in solution was from the group consisting of corn oil, diH2O, or Spectrum brand white thyme oil. The “dry” sample contained 2.5 g dry cake lutein and was preformed without the addition of any liquid. […]

A short description of data set [5]: Room temperature saturation limit and solubility on heating of lutein dry cake in solvents. Format: physicochemical. The settings on record: for Room temp. sataturation limit (%): room temperature. Here is the method: The purpose of this preparation is to analyze the effect of heat on a solution of lutein in four solvents, hexane, ethanol, isopropanol, and acetone, to determine whether isomerization from trans-isomers of lutein to various cis-isomers occurs, and what concentration of each isomer is formed. The solutions were prepared using 100 ml of the above stated solvents to dissolve varying weights of lutein dry cake. Initial solubility limits ere tested by adding a small amount of dry cake and swirling the flask briefly. If the sample appeared saturated, it was centrifuged to verify that a pellet of undissolved material was formed. If the solution was not saturated, additional dry cake was added until saturation was reached. Once the approximate solubility at room temperature was determined for each solvent, excess dry cake was added for the increased solubility that occurs through heating and isomerization, in order to maintain saturation during the entire experiment.

Data set [6] deals with age-related macular degeneration. The settings on record: consumption of lutein and zeaxanthin; cited from earlier work.
Data set [7] is described as follows: Persistence of cis-isomers during heating or reflux, normal phase HPLC percent area. Format: physicochemical. The protocol: as §1
Storing and centrifuging refers to the collected samples being placed into 12×75 mm glass culture tubes and wrapped with Parafilm® (Pechiney Plastic Packaging) and stored in a freezer until analysis. When prepped for analysis the collected samples are first warmed to room temperature and then the aliquot is centrifuged at 12,000 rpm for 5 minutes to remove trans-isomers crystals. The trans-isomer crystals are removed because the cis-isomers of lutein are known to be more soluble than the trans-isomers, which will allow them to remain in solution once formed. Next 1 ml of the centrifuged collected sample is placed into a High Performance Liquid Chromotography (HPLC) vial for analysis.
Analysis of the solutions formed from lutein and a liquid are analyzed using both normal phase HPLC and a spectophotometer. For the HPLC analysis, 1 ml of the collected sample of each solution is filtered through a 0.45 micron syringe filter into a HPLC sample vial. The sample is first dried using a nitrogen stream and then the remaining solids are dissolved in a 1 ml of a 65:35 hexane:ethylacetate mixture. […] In this way the percent area of the lutein cis-isomer peak is determined.

Data set [8] is described as follows: UV absorption spectra of cis-lutein and trans-lutein. Format: physicochemical. The source says:
FIG. 5 is a graph of the trans-lutein spectrum.
FIG. 6 is a graph of the cis-lutein spectrum.

Data set [9] can be described thus: Cis-isomer content of supernatants versus pellets of the isopropanol solution. It is filed as physicochemical. The protocol: The purpose of this preparation was to analyze the effect of isopropanol in solution with lutein, and analyze the effect of adding water to the lutein/isopropanol solution. In this example a solution was prepared by adding 2.51 g of dry cake lutein (lot 082405-08) to 50 ml isopropanol to a flask. The prepared solution was swirled and refluxed at 81° C. for 8 hours.
Samples were taken at 0, 1, 4, 6, and 8 hours to follow the isomerization. At 8 hours the sample was transferred to a 150 ml Erlenmeyer flask and placed in a freezer to cool. When partially cooled, aliquots were taken for precipitation and samples were diluted to 2:1, 1:1, and 1:2 ratios of water:isopropanol. An additional sample was prepared which contained only isopropanol solution. The samples were vortexed and centrifuged. Supernatant and pellets were collected and stored in a 1.5 ml microfuge tube until analysis.

In the case of `CC1=C[C@H](O)CC(C)(C)[C@H]1/C=C/C(C)=C/C=C/C(C)=C/C=C/C=C(C)/C=C/C=C(C)/C=C/C1=C(C)C[C@@H](O)CC1(C)C` (single isomer, unassigned) [trans-isomers of lutein, trans-lutein], in data set [1] (crystalline forms), the “stability in crystalline forms” value was “stable in crystalline forms”.
On to `CC(C)=CCC/C(C)=C/C=C/C(C)=C/C=C/C(C)=C/C=C/C=C(C)/C=C/C=C(C)/C=C/C=C(\C)CCC=C(C)C` [lycopene], for which, in [2], the oxygen quenching result was “best carotenoid oxygen quencher”. The “reducing the risk of prostate cancer” value in the data set on prostate cancer is reported as “active in reducing the risk of prostate cancer”.
On to `CC1=C[C@H](O)CC(C)(C)[C@H]1/C=C/C(C)=C/C=C/C(C)=C/C=C/C=C(C)/C=C/C=C(C)/C=C/C1=C(C)C[C@@H](O)CC1(C)C` [lutein dry cake, lutein], for which the carotenoid concentration observed in [3] (thyme oil, predicted concentration 10%) is 7.18%. For the same compound, in data set [4] (Example 4, 2 g dry cake in 20 ml oil), the “solubility in corn oil compared with thyme oils” value is reported as “least soluble in corn oil”. Further, the “Room temp. sataturation limit (%)” value in [5] (in acetone) is “˜0.45%”; in data set [5] (in ethanol) it was “˜0.3%”; in data set [5] (in hexane) it was <1%; in [5] (in isopropanol), “˜0.2%”. For the same compound, in data set [5] (in isopropanol, reflux), the “solubility when the solution was heated” value is given as “increased dramatically”.
As to `CC1=C(/C=C/C(C)=C/C=C/C(C)=C/C=C/C=C(C)/C=C/C=C(C)/C=C/C2=C(C)C[C@@H](O)CC2(C)C)C(C)(C)C[C@H](O)C1` [Zeaxanithin, zeaxanthin], the “reduction in age-related macular degeneration” value in data set [6] is on record as 57%.
For `CC(C=CC=C(C)C=CC1=C(C)CC(O)CC1(C)C)=CC=CC=C(C)C=CC=C(C)C=CC1C(C)=CC(O)CC1(C)C` (single isomer, unassigned) [13,13′ cis-isomer, 13,13′ cis-lutein], in data set [7] (Example 3 oils at 72° C., concentration declines after 24 hour sample), the “stability for extended periods” value was “did not appear to be highly stable for extended periods”. Also, in [7] (Example 4 thyme oils at 72° C., 4-48 hours), the stability entry was “appears to be stable”.
Consider cis-lutein [cis-isomers of lutein], for which the “ultraviolet light (UV) absorption compared with trans-isomer lutein” value in data set [8] is “higher”. For the same compound, in [1] (reflux in ethanol), the “stability upon reflux in ethanol” value is “easily reverted to the more thermodynamically stable trans-isomers”. The “solubility compared with trans-isomers” value in data set [9] is reported as “higher than trans-isomers”. Moreover, the “stability of the cis-isomer formed” value in [7] (propylene glycol reflux (75° C.), content decreased after four hours) is “not stable”.
As to `CC1=C[C@H](O)CC(C)(C)[C@H]1/C=C/C(C)=C/C=C/C(C)=C/C=C/C=C(C)/C=C/C=C(C)/C=C/C1=C(C)C[C@@H](O)CC1(C)C` [lutein], in [6], the “reduction in age-related macular degeneration” value is 57%. Moreover, the “time for which lutein was stable (carotenoid content)” value in data set [3] (in thyme oil) is on record as “about 6.5 hours”. In data set [4] (Example 3, corn mint, spearmint, peppermint, tea tree and bay oil, 3 mg or 4 mg in 20 ml), the “solubility in corn oil compared with the other oils” value was “less soluble in corn oil than in the other oils”. Also, the “solubility when heated in white thyme oil” value in data set [4] (Example 5, 25% w/v, Spectrum white thyme oil) is on record as “good solubility”.
